Data from patent publication US12622895B2, “Anti-neurodegenerative combinations and use for treatment of neurodegenerative diseases” (ALTO NEUROSCIENCE, INC., priority 2018, dated 2026).
Where two headings read alike, the source gives them in different places.

How the values were obtained:
patients [1] = conditions: in vivo; cited from earlier work
mouse PD model = conditions: cited from earlier work
[2] = molecular target: human wild-type alpha-synuclein (Homo sapiens, UniProt P37840); conditions: by H2O2 plus cytochrome c; cited from earlier work
subjects = conditions: in vivo
[3] = tested on: human neuroblastoma SH-SY5Y cells; conditions: cited from earlier work
patients [4] = conditions: 5 mg/day of pramipexole, cited from earlier work
[5] = tested on: α-synuclein in peripheral blood exosomes; conditions: PD patients, approved therapeutic doses; cited from earlier work
Parkinsonian patient = conditions: one patient, cited from earlier work
alpha-synuclein = alpha-synuclein (Homo sapiens, UniProt P37840); conditions: cited from earlier work
PD patients = conditions: doses approved for the motor symptoms of PD; 535 PD patients; cited from earlier work
[6] = tested on: mice that received 6-hydroxydopamine; conditions: injection, 30 mg/kg; cited from earlier work
patients with PD = conditions: 25 mg-50 mg, alone or with levodopa; cited from earlier work
Engrailed mutant mice = conditions: cited from earlier work
MPTP-treated mice = conditions: 20 mg/kg; cited from earlier work
[7] = tested on: A53T α-synuclein-induced neurodegeneration; conditions: cited from earlier work
[8] = tested on: rat corticostriatal slices; conditions: 0.3, 1, 3 and 10 μM; cited from earlier work
animals = conditions: cited from earlier work
[9] = tested on: patients with secondary progressive multiple sclerosis; conditions: high-dose, 140 patients, cited from earlier work
brain cell systems = conditions: cited from earlier work
MPTP induced damage = conditions: toxin-induced model of PD; cited from earlier work
6-OHDA induced damage = conditions: toxin-induced model of PD; cited from earlier work
rodent = conditions: fluoxetine added to pramipexole; cited from earlier work
Caenorhabditis elegans = conditions: C. elegans; cited from earlier work
rodents = conditions: large doses, acute systemic administration; cited from earlier work

For `CCCN[C@H]1CCc2nc(N)sc2C1` [Pramipexole, (S)-6-propylamino-4,5,6,7-tetrahydro-1,3-benzothiazole-2-amine], the “side effects of the approved doses, often dose-limiting” value (patients [1]) is listed as “nausea, vomiting, somnolence, confusion, postural hypotension, and hallucinations as well as gastrointestinal disturbances”, the “toxic effects of rotenone on dopaminergic neurons” value (mouse PD model; mouse PD model) is listed as “inhibits the toxic effects of rotenone on dopaminergic neurons” and the immunoreactivity for alpha-synuclein (mouse PD model; rotenone mouse PD model) is listed as “reducing immunoreactivity for alpha-synuclein”. The “in vitro oligomerization of human wild-type alpha-synuclein” value [2] was “decreases”, the “first intolerable dose reached” value (subjects; human) was “All subjects reached FID-1” and the dose limiting toxicity (subjects) was “gastro-intestinal adverse events”. The aggregation of alpha-synuclein [3] was “inhibit the aggregation of alpha-synuclein”, the “nausea, patients” value (patients [4]) was 76% and the “vomiting, patients” value (patients [4]) was 39%. The “patients not able to complete the study” value (patients [4]; presumably intolerable GI adverse events) was 36%, the “magnitude of the effect on alpha-synuclein expression” value [5] was “small” and the hallucinations (Parkinsonian patient; extended-release formulation, pramipexole 4.5 mg/day with levodopa, entcapone, selegiline and zonisamide) was “induce hallucinations”. For the same molecule, the hallucinations (Parkinsonian patient; immediate release formulation, same combination) was “not”, the “oligomerization (and aggregation) of alpha-synuclein in vitro” value (alpha-synuclein) was “diminishes synuclein oligomer formation” and the “neuroprotective (disease modifying) activity” value (PD patients) was “failed to evidence neuroprotective (i.e., disease modifying) activity”.
In the case of `NS(=O)(=O)Cc1noc2ccccc12` [zonisamide, benzo[d]isoxazol-3-ylmethanesulfonamide], the “loss of nigral dopamine neurons” value [6] is given as “prevented the loss of nigral dopamine neurons”, the motor symptoms (patients with PD) is given as “improve motor symptoms” and the “survival of nigrostriatal dopaminergic neurons, striatal terminals and motor function” value (Engrailed mutant mice; chronic administration, versus saline) is given as “improved the survival of nigrostriatal dopaminergic neurons as well as their striatal dopaminergic terminals and motor function”. The “brain-derived neurotrophic factor content in striatum and ventral midbrain” value (Engrailed mutant mice; versus saline-treated controls) was “increased”, the “oligomerization (and aggregation) of alpha-synuclein in vitro” value (alpha-synuclein) was “inhibits the in vitro oligomerization and aggregation of alpha-synuclein” and the “loss of nigral TH-positive neurons” value (MPTP-treated mice) was “reduced the loss of nigral TH-positive neurons”. For the same molecule, the striatal dopamine depletion (MPTP-treated mice) was “attenuating the associated striatal dopamine depletion”, the “duration of the effect” value ([7]; after transgene injection) was “lasted at least eight weeks” and the “survival of nigrostriatal dopamine neurons” value ([7]; oral, 40 mg/kg/day) was “no impact”. The pace of degeneration ([7]; oral, 40 mg/kg/day, four weeks after injection of the viral vector, versus control group) was “significantly delayed the pace of degeneration” and the “rotenone-induced toxicity (loss of corticostriatal field potential amplitude)” value [8] was “significantly reduced the rotenone-induced toxicity”.
In the case of `CCC(C)(C)C(=O)O[C@H]1C[C@@H](C)C=C2C=C[C@H](C)[C@H](CC[C@@H]3C[C@@H](O)CC(=O)O3)[C@H]21` [simvastatin, (1S,3R,7S,8S,8aR)-8-{2-[(2R,4R)-4-hydroxy-6-oxotetrahydro-2H-pyran-2-yl]ethyl}-3,7-dimethyl-1,2,3,7,8,8a-hexahydronaphthalen-1-yl 2,2-dimethylbutanoate], the “consequences of dopaminergic neurotoxin MPTP” value (animals) is given as “protect against the deleterious consequences of dopaminergic neurotoxin MPTP”, the tolerability and safety [9] is given as “well tolerated and safe” and the “annualised rate of whole-brain atrophy” value ([9]; versus placebo) is given as “reduced the annualised rate of whole-brain atrophy compared with placebo”. The dopaminergic neurodegeneration (brain cell systems; 6-OHDA-lesioned cell model (Xu et al. 2013)) was “robust neuroprotection against dopaminergic neurodegeneration” and the “consequences of the dopaminergic neurotoxin 6-OHDA” value (brain cell systems; brain cell systems) was “protect against the deleterious consequences of the dopaminergic neurotoxin 6-hydroxydopamine”.
In the case of `CNCCC(Oc1ccc(C(F)(F)F)cc1)c1ccccc1` (stereo not drawn) [fluoxetine, 1-methylamino-3-phenyl-3-[4-(trifluoromethyl)phenoxy]propane], the MPTP induced damage (MPTP induced damage) is given as “protect against”, the 6-OHDA induced damage (6-OHDA induced damage) is given as “protect against” and the “activity of pramipexole in the forced swimming test” value (rodent) is given as “enhance the activity of pramipexole”. The amyloid-β oligomers (Caenorhabditis elegans) was “reducing amyloid-β oligomers”, the amyloid-β-induced paralysis (Caenorhabditis elegans) was “significantly delay” and the life span (Caenorhabditis elegans) was “extend life span”. For the same molecule, the thermal stress resistance (Caenorhabditis elegans) was “increase thermal stress resistance” and the “extracellular concentrations of norepinephrine and dopamine” value (rodents) was “significant increase”.
